≈ marks a conversion by molar mass, not a printed value.
How the values were obtained:
[1] = tested on: Apis mellifera; conditions: acute, mortality
[2] = tested on: Canidae; conditions: chronic; duration: 1 years; Dog Other; clinical signs
[3] = tested on: Colinus virginianus; conditions: reproduction developmental
[4] = tested on: Coturnix japonica; conditions: acute; oral; mortality
[5] = tested on: Daphnia magna; conditions: chronic/long-term; duration: 21 days
[6] = tested on: Folsomia candida; conditions: chronic/long-term; duration: 28 days
[7] = tested on: Oncorhynchus mykiss; conditions: acute; duration: 96 hours; mortality
[8] = tested on: Rattus norvegicus
[9] = tested on: Tagia sp.; conditions: chronic/long-term; duration: 56 days
[10] = tested on: Typhlodromus pyri; assay: LR50; higher = less toxic; conditions: acute; mortality

CCN(CC)C(=O)[C@@H](C)Oc1cccc2ccccc12 [(R)-N,N-Diethyl-2-(1-naphthyloxy)propionamide]
LD50 ([1]; dermal): > 110 µg/piece | LD50 ([1]; oral, unspecified): > 110 µg/piece | NOAEL [2]: 50 mg/kg-day | NOAEL [3]: 309 mg/kg-day | LD50 [4]: > 2000 mg/kg-day | NOEC [5]: 0.1 mg/L | NOEC [6]: 47.7 mg/kg | LC50 [7]: 11.2 µg/mL (≈ 41.3 µM) | LD50 ([8]; acute, oral, mortality): > 2000 mg/kg-day | NOAEL ([8]; chronic, duration: 2 years, body weight): 30 mg/kg-day | NOAEL ([8]; subchronic, duration: 90 days, oral, hematological): 46 mg/kg-day | NOEC [9]: 17.1 mg/kg | LR50 [10]: > 4140 g/ha

Source: EPA's ToxValDB 9.5 (doi:10.2903/j.efsa.2018.5465)
